Like-named read-outs stand apart in the source and are kept apart here.
How the values were obtained:
Human M3 receptor = Human M3 receptor (Homo sapiens (Human), UniProt P20309); test: M3 receptor radioligand binding assay
Procedure: M3 Receptor Radioligand Binding Assay:
The assay is carried out in 96-well polypropylene plates in a volume of 250 μl. […] The final assay concentration of DMSO is 0.5% (v/v). The plates are sealed and incubated for 2 h at room temperature on an orbital shaker (slow speed). Membranes are harvested onto 96-well unifilter GF/C filter plates pre-treated with 0.5% polyethyleneimine (v/v), using a filter manifold, washed four times with […] of assay buffer. The plates are dried before addition of 50 μl of microscint-0, sealed then read in a Trilux Microbeta scintillation counter. IC50 values are determined from competition curves using a non-linear curve fitting program. Ki values are calculated from IC50 values by the Cheng and Prusoff equation.

Human recombinant PDE4B2 = Human recombinant PDE4B2 (Homo sapiens (Human), UniProt Q07343); test: PDE4B2 HTRF assay; assay type: biochemical
Procedure: PDE4B2 activity is detected using the LANCE Ultra cAMP homogeneous time resolved fluorescence resonance energy transfer (TR-FRET) assay from Perkin Elmer. The assay is based on the competition between the europium (Eu) chelate-labeled cAMP tracer and sample cAMP for binding sites on cAMP-specific monoclonal antibodies (mAb) labelled with the ULight™ dye. The assay is carried out in 384-well low volume plates in a volume of 10 μl. Human recombinant PDE4B2 (80 pM) is incubated for 2 h with 3 nM cAMP in buffer containing 1×HBSS, 5 mM HEPES, 3 mM MgCl2, 0.1% BSA, pH 7.4 with or without test compounds. The enzymatic reactions are efficiently stopped by the addition of 500 μM IBMX present in the combined Stop/Detection buffer containing europium (Eu) chelate-labeled cAMP tracer and cAMP-specific monoclonal antibodies (mAb) labelled with the ULight™ dye. […] IC50 values are determined from competition curves using a non-linear curve fitting program.

[1] = cited from earlier work
[2] = M3 Receptor radioligand binding assay, read-out: M3 IC50 Activity
[3] = PDE4B2 HTRF assay, read-out: PDE4B2 IC50 Activity
[4] = patients with severe disease, frequent exacerbations and mucus hypersecretion

Sequence of Human recombinant PDE4B2 (Q07343 other isoform, or with tags, fused parts or gaps): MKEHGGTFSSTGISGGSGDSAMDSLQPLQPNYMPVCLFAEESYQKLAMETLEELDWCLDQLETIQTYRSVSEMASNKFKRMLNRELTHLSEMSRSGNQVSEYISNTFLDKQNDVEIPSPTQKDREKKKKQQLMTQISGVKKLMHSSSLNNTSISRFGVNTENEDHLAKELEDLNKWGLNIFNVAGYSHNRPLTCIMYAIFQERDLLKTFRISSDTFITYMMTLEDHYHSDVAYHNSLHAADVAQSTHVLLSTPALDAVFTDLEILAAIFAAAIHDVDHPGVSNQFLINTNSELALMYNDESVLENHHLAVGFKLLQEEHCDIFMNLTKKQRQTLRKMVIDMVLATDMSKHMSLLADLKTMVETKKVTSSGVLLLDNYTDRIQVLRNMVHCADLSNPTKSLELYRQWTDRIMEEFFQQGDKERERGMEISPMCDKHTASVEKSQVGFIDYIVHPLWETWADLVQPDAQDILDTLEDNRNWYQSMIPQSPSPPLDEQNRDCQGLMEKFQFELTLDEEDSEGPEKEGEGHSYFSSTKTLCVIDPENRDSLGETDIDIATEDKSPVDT
Sequence of Human M3 receptor (P20309 whole entry): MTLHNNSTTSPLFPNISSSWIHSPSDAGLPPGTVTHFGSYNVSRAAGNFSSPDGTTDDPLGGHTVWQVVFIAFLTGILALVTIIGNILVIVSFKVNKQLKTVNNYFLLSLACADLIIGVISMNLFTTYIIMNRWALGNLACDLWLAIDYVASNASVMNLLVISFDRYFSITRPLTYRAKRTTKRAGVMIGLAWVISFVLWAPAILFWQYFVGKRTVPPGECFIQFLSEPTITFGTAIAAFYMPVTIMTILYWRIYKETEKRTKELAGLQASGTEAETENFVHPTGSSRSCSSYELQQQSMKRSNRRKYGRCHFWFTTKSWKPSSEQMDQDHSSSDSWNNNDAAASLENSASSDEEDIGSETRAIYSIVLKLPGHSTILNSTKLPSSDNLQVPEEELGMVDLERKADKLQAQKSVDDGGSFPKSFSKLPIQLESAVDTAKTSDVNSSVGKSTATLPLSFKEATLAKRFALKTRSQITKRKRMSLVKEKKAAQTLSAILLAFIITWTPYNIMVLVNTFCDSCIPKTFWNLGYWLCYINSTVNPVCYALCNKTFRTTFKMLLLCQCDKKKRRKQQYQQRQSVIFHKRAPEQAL

Row | Structure (SMILES) | IC50 (Human M3 receptor; M3 IC50 Activity) [nM] | IC50 (Human M3 receptor; [2]) [nM] | IC50 (Human recombinant PDE4B2; [3]) [nM] | other results
1 | COc1ccc([C@H](Cc2c(Cl)c[n+]([O-])cc2Cl)OC(=O)c2ccc(CCN3CCC(C(=O)O[C@H]4CN5CCC4CC5)(c4ccccc4)CC3)cc2)cc1OC [Example 12, [(3R)-quinuclidin-3-yl]-1-[2-[4-[(1S)-2-(3,5-dichloro-1-oxido-pyridin-1-ium-4-yl)-1-(3,4-dimethoxyphenyl)ethoxy]carbonylphenyl]ethyl]-4-phenyl-piperidine-4-carboxylate] | 1 to 10 | – | – | IC50 (Human recombinant PDE4B2): 1 to 10 nM
2 | COc1ccc([C@H](Cc2c(Cl)c[n+]([O-])cc2Cl)OC(=O)c2ccc(CNCC(C)(C(=O)OC3CCN(C)CC3)c3ccccc3)s2)cc1OC (stereo partly drawn) [Example 25, [(1S)-2-(3,5-dichloro-1-oxido-pyridin-1-ium-4-yl)-1-(3,4-dimethoxyphenyl)ethyl] 5-[[[2-methyl-3-[(1-methyl-4-piperidyl)oxy]-3-oxo-2-phenyl-propyl]amino]methyl]thiophene-2-carboxylate] | – | 10 to 100 | 1 to 10 | –
3 | COc1ccc([C@H](Cc2c(Cl)c[n+]([O-])cc2Cl)OC(=O)c2ccc(CNCC(C(=O)O[C@H]3CN4CCC3CC4)c3ccccc3)s2)cc1OC (single isomer, unassigned) [Example 21] | 1 to 10 | – | – | IC50 (Human recombinant PDE4B2; read-out: PDE4B2 IC50 Activity): 1 to 10 nM
4 | COc1ccc([C@H](Cc2c(Cl)c[n+]([O-])cc2Cl)OC(=O)c2ccc(CNCC(C(=O)OCCN(C)C)c3ccccc3)s2)cc1OC (stereo partly drawn) [Example 22, [(1S)-2-(3,5-dichloro-1-oxido-pyridin-1-ium-4-yl)-1-(3,4-dimethoxyphenyl)ethyl] 5-[[[3-(2-dimethylaminoethyloxy)-3-oxo-2-phenyl-propyl]amino]methyl]thiophene-2-carboxylate] | – | 1 to 10 | 1 to 10 | –
5 | O=C(Nc1c(Cl)cncc1Cl)c1ccc(OC(F)F)c(OCC2CC2)c1 [roflumilast] | – | – | – | reduction of the numbers of neutrophils in sputum ([1]; COPD patients, oral, given over four weeks): 36%; improvement of FEV 1 [1, 4]: approximately 50 mL; reduction of exacerbation [1, 4]: about 15%
6 | COc1ccc([C@H](Cc2c(Cl)c[n+]([O-])cc2Cl)OC(=O)c2ccc(CNCC(C)(C(=O)OCCN(C)C)c3ccccc3)s2)cc1OC (stereo partly drawn) [Example 29, [(1S)-2-(3,5-dichloro-1-oxido-pyridin-1-ium-4-yl)-1-(3,4-dimethoxyphenyl)ethyl] 5-[[[3-(2-dimethylaminoethyloxy)-2-methyl-3-oxo-2-phenyl-propyl]amino]methyl]thiophene-2-carboxylate] | – | 10 to 100 | 1 to 10 | –
7 | COc1ccc([C@H](Cc2c(Cl)c[n+]([O-])cc2Cl)OC(=O)c2ccc(CNC3CC(C(=O)OC4CCN(C)CC4)(c4ccccc4)C3)s2)cc1OC (single isomer, unassigned) [Example 34] | – | 10 to 100 | 1 to 10 | –
8 | COc1ccc([C@H](Cc2c(Cl)c[n+]([O-])cc2Cl)OC(=O)c2ccc(CNC3CC(C(=O)OC4CCN(C)CC4)(c4ccccc4)C3)s2)cc1OC (single isomer, unassigned) [Example 35] | – | 1 to 10 | 1 to 10 | –
9 | COc1ccc([C@H](Cc2c(Cl)c[n+]([O-])cc2Cl)OC(=O)c2ccc(CNC3CC(C(=O)O[C@H]4CN5CCC4CC5)(c4ccccc4)C3)s2)cc1OC (stereo partly drawn) [Example 37, [(1S)-2-(3,5-dichloro-1-oxido-pyridin-1-ium-4-yl)-1-(3,4-dimethoxyphenyl)ethyl] 5-[[[3-phenyl-3-[(3R)-quinuclidin-3-yl]oxycarbonyl-cyclobutyl]amino]methyl]thiophene-2-carboxylate] | – | – | – | IC50 (Human M3 receptor; read-out: M3 IC50 Activity): 1 to 10 nM; IC50 (Human recombinant PDE4B2; read-out: PDE4B2 IC50 Activity): 1 to 10 nM
10 | COc1ccc([C@H](Cc2c(Cl)c[n+]([O-])cc2Cl)OC(=O)c2ccc(CNC3CC(C(=O)O[C@H]4CN5CCC4CC5)(c4ccccc4)C3)s2)cc1OC (stereo partly drawn) [Example 33, [(1S)-2-(3,5-dichloro-1-oxido-pyridin-1-ium-4-yl)-1-(3,4-dimethoxyphenyl)ethyl] 5-[[[3-phenyl-3-[(3R)-quinuclidin-3-yl]oxycarbonyl-cyclobutyl]amino]methyl]thiophene-2-carboxylate] | 1 to 10 | – | – | IC50 (Human recombinant PDE4B2): 1 to 10 nM
11 | COc1ccc([C@H](Cc2c(Cl)c[n+]([O-])cc2Cl)OC(=O)c2ccc(CNCC(C(=O)O[C@H]3CN4CCC3CC4)c3ccccc3)cc2)cc1OC (stereo partly drawn) [Example 2, [(1S)-2-(3,5-dichloro-1-oxido-pyridin-1-ium-4-yl)-1-(3,4-dimethoxyphenyl)ethyl] 4-[[[3-oxo-2-phenyl-3-[(3R)-quinuclidin-3-yl]oxy-propyl]amino]methyl]benzoate] | 1 to 10 | – | – | IC50 (Human recombinant PDE4B2): 1 to 10 nM

Reference: patent US9809582B2, “Aminoester derivatives” (CHIESI FARMACEUTICI S.p.A., priority 2015, dated 2017)
